This note sets out measurements from patent publication US9499493B2, “2,4-pyrimidinediamine compounds and their uses” (Rigel Pharmaceuticals, Inc., priority 2002, dated 2016).

In assay [1] the test system is cultured human mast cells (CHMC). Kind of assay: CHMC low cell density IgE activation: tryptase assay. The following applies: anti-IgE. The class given is cell-based. In a few lines:
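Cells pelleted, taken up in warm MT, plated at 1000-1500/well, held 1 hr 37° C. Anti-IgE added, 30 min 37° C. Plates spun; supernatant mixed with tryptase substrate, 30 min RT.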

Assay [2] has the same test system. Kind of assay: CHMC low cell density ionomycin activation: tryptase assay. The class given is cell-based.

By IC50 is commonly meant the concentration that gives 50% inhibition. Low readings indicate greater potency in that assay, high ones weaker potency in that assay. Take `C=CCNC(=O)Oc1cccc(Nc2nc(Nc3cccc(OCC(=O)NC)c3)ncc2F)c1` [R926917, 5-Fluoro-N4-[3-[(N-allylamino)carbonyloxy]phenyl]-N2-[3-[(N-methylamino)carbonylmethyleneoxy]phenyl]-2,4-pyrimidinediamine]: the 50% inhibitory concentration (IC50) in assay [1] was 1.17 µM; in assay [2], greater than 10 µM.

As for `CCOC(=O)CNC(=O)Oc1cccc(Nc2nc(Nc3cccc(OCC(=O)NC)c3)ncc2F)c1` [R926918, N4-[3-[[N-(Ethoxycarbonylmethyl)amino]carbonyloxy]phenyl]-5-fluoro-N2-[3-[(N-methylamino)carbonylmethyleneoxy]phenyl]-2,4-pyrimidinediamine], the results for the IC50 in assay [1] and in assay [2] were 2.52 µM and greater than 10 µM, respectively.

For `CCNC(=O)Oc1cccc(Nc2nc(Nc3cccc(OCC(=O)NC)c3)ncc2F)c1` [R926919], the IC50 is 1.41 µM in assay [1] and greater than 10 µM in assay [2].

For `CNC(=O)COc1cccc(Nc2ncc(F)c(Nc3ccc(C)c(C(F)(F)F)c3)n2)c1` [R926922, 5-Fluoro-N2-[3-[(N-methylamino)carbonylmethyleneoxy]phenyl]-N4-(4-methyl-3-trifluoromethylphenyl)-2,4-pyrimidinediamine], the results for the IC50 in assay [1] and in assay [2] were 0.305 µM and greater than 10 µM, respectively.

As for `CNC(=O)COc1cccc(Nc2ncc(F)c(Nc3ccc(F)c(C)c3)n2)c1` [R926923, 5-Fluoro-N4-(4-fluoro-3-methylphenyl)-N2-[3-[(N-methylamino)carbonylmethyleneoxy]phenyl]-2,4-pyrimidinediamine], the figures for the IC50 in assay [1] and in assay [2] were 0.346 µM and greater than 10 µM, respectively.

For the molecule `COC(=O)COc1cc(Nc2ncc(F)c(Nc3cccc(O)c3)n2)cc(OCC(=O)OC)c1` [R926926, N2-[3,5-Bis(methoxycarbonylmethyleneoxy)phenyl]-5-fluoro-N4-(3-hydroxyphenyl)-2,4-pyrimidinediamine], the IC50 is 0.401 µM in assay [1] and greater than 10 µM in assay [2].

Take `COC(=O)COc1cc(O)cc(Nc2ncc(F)c(Nc3cccc(O)c3)n2)c1` [R926927, 5-Fluoro-N2-[3-hydroxy-5-(methoxycarbonylmethyleneoxy)phenyl]-N4-(3-hydroxyphenyl)-2,4-pyrimidinediamine]: the IC50 in assay [1] is 0.348 µM; in assay [2], greater than 10 µM.

`CNC(=O)COc1cc(O)cc(Nc2ncc(F)c(Nc3cccc(O)c3)n2)c1` [R926929, 5-Fluoro-N2-[3-hydroxy-5-[(N-methylamino)carbonylmethyleneoxy]phenyl]-N4-(3-hydroxyphenyl)-2,4-pyrimidinediamine]: the IC50 in assay [1] is 1.92 µM; in assay [2], greater than 10 µM.

For the molecule `Cc1ccc(-c2ccccc2)cc1Nc1ncc(C)c(Nc2cc(-c3ccccc3)ccc2C)n1` [R935001, N2,N4-Bis[(2-methyl-5-phenyl)phenyl]-5-methyl-2,4-pyrimidinediamine], the IC50 in assay [1] and in assay [2] was greater than 10 µM throughout.

Consider `COc1ccc(Nc2ncc(C)c(Nc3ccc(OC)c(-c4ccccc4)c3)n2)cc1-c1ccccc1` [R935002, N2,N4-Bis[(4-methoxy-3-phenyl)phenyl]-5-methyl-2,4-pyrimidinediamine], for which the IC50 in assay [1] and in assay [2] was greater than 10 µM in each case.

As to `COc1cc(-c2ccccc2)c(C)cc1Nc1ncc(C)c(Nc2cc(C)c(-c3ccccc3)cc2OC)n1` [R935003, N2,N4-Bis[(4-phenyl-2-methoxy-5-methyl)phenyl]-5-methyl-2,4-pyrimidinediamine], the IC50 in assay [1] and in assay [2] was greater than 10 µM throughout.

With `COc1ccc([C@@H](C)Nc2ncc(Br)c(N[C@H](C)c3ccc(OC)cc3)n2)cc1` [R935016, N2,N4-Bis[1(R)-4-methoxyphenylethyl]-5-bromo-2,4-pyrimidineamine], the IC50 in assay [1] and in assay [2] was greater than 10 µM each time.

In the case of `Oc1cccc(Nc2nc(Nc3ccc(OCc4nc(-c5ccccc5)no4)cc3)ncc2F)c1` [R935134, 5-Fluoro-N4-(3-hydroxyphenyl)-N2-[4-(3-phenyl-1,2,4-oxadiazol-5-yl)methyleneoxyphenyl]-2,4-pyrimidinediamine], the IC50 in assay [1] came to 0.909 µM; in assay [2], 1.8 µM.

For `CC(C)Oc1ccc(Nc2nc(Nc3ccc(OCc4nc(-c5ccccc5)no4)cc3)ncc2F)cc1` [R935135, 5-Fluoro-N4-(4-isopropoxyphenyl)-N2-[4-(3-phenyl-1,2,4-oxadiazol-5-yl)methyleneoxyphenyl]-2,4-pyrimidinediamine], the IC50 was 10 µM in assay [1] and greater than 10 µM in assay [2].

Take `Fc1cnc(Nc2ccc(OCc3nc(-c4ccccc4)no3)cc2)nc1Nc1ccc2c(c1)OCCO2` [R935136, N4-(3,4-Ethylenedioxyphenyl)-5-fluoro-N2-[4-(3-phenyl-1,2,4-oxadiazol-5-yl)methyleneoxyphenyl]-2,4-pyrimidinediamine]: the concentration for half-maximal inhibition (IC50) was 0.952 µM in assay [1] and 2.13 µM in assay [2].

Regarding `COC(=O)c1cc2cc(Nc3nc(Nc4ccc(OCc5nc(-c6ccccc6)no5)cc4)ncc3F)ccc2o1` [R935137, 5-Fluoro-N4-(2-methoxycarbonylbenzofura-5-yl)-N2-[4-(3-phenyl-1,2,4-oxadiazol-5-yl)methyleneoxyphenyl]-2,4-pyrimidinediamine], the IC50 in assay [1] was 10 µM; in assay [2], greater than 10 µM.

For `CC(C)Oc1ccc(Nc2ncc(F)c(Nc3ccc(OCc4nc(-c5ccccc5)no4)cc3)n2)cc1` [R935139, 5-Fluoro-N2-(4-isopropoxyphenyl)-N4-[4-(3-phenyl-1,2,4-oxadiazol-5-yl)methyleneoxyphenyl]-2,4-pyrimidinediamine], the results for the IC50 in assay [1] and in assay [2] were 0.846 µM and greater than 10 µM, respectively.

Turning to `Fc1cnc(Nc2ccc3c(c2)OCCO3)nc1Nc1ccc(OCc2nc(-c3ccccc3)no2)cc1` [R935140, N2-(3,4-Ethylenedioxyphenyl)-5-fluoro-N4-[4-(3-phenyl-1,2,4-oxadiazol-5-yl)methyleneoxyphenyl]-2,4-pyrimidinediamine], the IC50 in assay [1] was determined as 0.275 µM; in assay [2] it was 0.959 µM.

Consider `Cc1noc(COc2ccc(Nc3ncc(F)c(Nc4cccc(O)c4)n3)cc2)n1` [R935141, 5-Fluoro-N4-(3-hydroxyphenyl)-N2-[4-(3-methyl-1,2,4-oxadiazol-5-yl)methyleneoxyphenyl]-2,4-pyrimidinediamine], for which the IC50 in assay [1] was 0.727 µM; in assay [2], greater than 10 µM.

Turning to `Cc1noc(COc2ccc(Nc3ncc(F)c(Nc4ccc(OC(C)C)cc4)n3)cc2)n1` [R935142, 5-Fluoro-N4-(4-isopropoxyphenyl)-N2-[4-(3-methyl-1,2,4-oxadiazol-5-yl)methyleneoxyphenyl]-2,4-pyrimidinediamine], the IC50 was 0.873 µM in assay [1] and greater than 10 µM in assay [2].

Turning to `Cc1noc(COc2ccc(Nc3ncc(F)c(Nc4ccc5c(c4)OCCO5)n3)cc2)n1` [R935143, N4-(3,4-Ethylenedioxyphenyl)-5-fluoro-N2-[4-(3-methyl-1,2,4-oxadiazol-5-yl)methyleneoxyphenyl]-2,4-pyrimidinediamine], the 50% inhibitory concentration (IC50) was 0.573 µM in assay [1] and greater than 10 µM in assay [2].

In the case of `Cc1noc(COc2ccc(Nc3nc(Nc4ccc(OC(C)C)cc4)ncc3F)cc2)n1` [R935144, 5-Fluoro-N2-(4-isopropoxyphenyl)-N4-[4-(3-methyl-1,2,4-oxadiazol-5-yl)methyleneoxyphenyl]-2,4-pyrimidinediamine], the IC50 in assay [1] is 0.63 µM; in assay [2] it was greater than 10 µM.

Turning to `COC(=O)c1cc2cc(Nc3ncc(F)c(Nc4ccc(OCc5nc(C)no5)cc4)n3)ccc2o1` [R935146, 5-Fluoro-N2-(2-methoxycarbonylbenzofura-5-yl)-N4-[4-(3-methyl-1,2,4-oxadiazol-5-yl)methyleneoxyphenyl]-2,4-pyrimidinediamine], the values for the IC50 in assay [1] and in assay [2] were 3.8 µM and greater than 10 µM, respectively.

As for `Cc1noc(COc2ccc(Nc3nc(Nc4cccc(O)c4)ncc3F)cc2)n1` [R935147, 5-Fluoro-N2-(3-hydroxyphenyl)-N4-[4-(3-methyl-1,2,4-oxadiazol-5-yl)methyleneoxyphenyl]-2,4-pyrimidinediamine], the results for the IC50 in assay [1] and in assay [2] were 1.4 µM and greater than 10 µM, respectively.

For the molecule `CCOC(=O)C(C)(C)c1ccc(Nc2nc(Nc3ccc4c(c3)OCCO4)ncc2F)cc1` [R935148, N2-(3,4-Ethylenedioxyphenyl)-N4-[4-[(1-ethoxycarbonyl-1-methyl)ethyl]phenyl]-5-fluoro-2,4-pyrimidinediamine], the IC50 in assay [1] was found to be 2.22 µM; in assay [2] it was 9.42 µM.

For `CCOC(=O)C(C)(C)c1ccc(Nc2ncc(F)c(Nc3ccc(OC(C)C)cc3)n2)cc1` [R935150, N2-[4-[(1-Ethoxycarbonyl-1-methyl)ethyl]phenyl]-5-fluoro-N4-(4-isopropoxyphenyl)-2,4-pyrimidinediamine], the results for the IC50 in assay [1] and in assay [2] were 1.93 µM and 9.74 µM, respectively.

For the molecule `CCOC(=O)C(C)(C)c1ccc(Nc2ncc(F)c(Nc3cccc(O)c3)n2)cc1` [R935152, N2-[4-[(1-Ethoxycarbonyl-1-methyl)ethyl]phenyl]-5-fluoro-N4-(3-hydroxyphenyl)-2,4-pyrimidinediamine], the results for the IC50 in assay [1] and in assay [2] were 0.505 µM and 9.32 µM, respectively.

As to `CCOC(=O)C(C)(C)c1ccc(Nc2nc(Nc3ccc(OCC(=O)OC)cc3)ncc2F)cc1` [R935157, N4-[4-[(1-Ethoxycarbonyl-1-methyl)ethyl]phenyl]-5-fluoro-N2-(4-methoxycarbonylmethyleneoxyphenyl)-2,4-pyrimidinediamine], the IC50 was 0.256 µM in assay [1] and 4.66 µM in assay [2].

With `COC(=O)COc1ccc(Nc2ncc(F)c(Nc3ccc(OC(C)C)cc3)n2)cc1` [R935159, 5-Fluoro-N4-(4-isopropoxyphenyl)-N2-(4-methoxycarbonylmethyleneoxyphenyl)-2,4-pyrimidinediamine], the IC50 in assay [1] was 0.232 µM; in assay [2], 4.13 µM.

Consider `Fc1cnc(Nc2ccc3c(c2)OCCCO3)nc1Nc1ccc2c(c1)OCCCO2` [R935162, N2,N4-Bis(3,4-propylenedioxyphenyl)-5-fluoro-2,4-pyrimidinediamine], for which the IC50 was 0.269 µM in assay [1] and greater than 10 µM in assay [2].

For `Fc1ccc(Nc2ccnc(Nc3ccc(F)c(Cl)c3)n2)cc1Cl` [R935163, N2,N4-Bis(3-chloro-4-fluoropheny)-2,4-pyrimidinediamine], the IC50 in assay [1] and in assay [2] was greater than 10 µM each time.
